Reference: patent publication US20220332763A1, “FUSED POLYPEPTIDE AND USE THEREOF” (NANJING ANJI BIOLOGICAL TECHNOLOGY CO., LTD., priority 2019, published 2022)
Where no end group is shown, it is not given here.

Assays:
[1] = tested on: SD rats with bleomycin-induced pulmonary fibrosis; assay: Bleomycin-induced pulmonary fibrosis animal model; type: in vivo; details: for Survival rate (%): dosage 10 mg/kg in Table 2, administration 14 days, model group 50
Experimental: SD rats were anesthetized by intraperitoneal injection of 1 mL/100 g 4% chloral hydrate. After anesthesia, the rats were fixed and their necks were disinfected by using cotton with 75% alcohol. The skin of the rat neck was longitudinally cut with scissors, and the fascia and muscle were longitudinally bluntly torn with tweezers to expose the trachea. A syringe was inserted into the trachea to inject 5 mg/kg bleomycin, while a blank group was injected with an equal amount of normal saline. Then a rat plate was quickly erected and rotated, the rats' breathing was observed, the neck wound was sterilized after rotation and was sewn, and an amoxicillin anti-inflammatory drug was sprinkled on the suture. After the operation, the rats were put back into a dry and clean cage for resting, waiting was performed for awakening. The rats were awakened after about 1-2 hours, and then fed normally. On the 7th day after modeling, modeling group animals randomly fell into a model group, a Nintedanib positive drug group, polypeptide I, II, III, IV, V, VI dosage groups, and a normal control group, and the groups were administered separately for an administration cycle of 14 days. Living situations of rats were observed every day and their weights were weighed. After administration for 14 days, the SD rats were dissected, the lung tissue was taken, and the right lung tissue was placed in a tissue fixative only for fixation, and HE staining and Masson staining and slice analysis were performed.

TGF-β1 = assay: Renal fibrosis animal model (ureter ligation), TGF-β1 in serum; type: in vivo; details: SD rats with renal fibrosis; 7.5 mg/kg subcutaneous twice a day, 14 days; FIG. 3
Experimental: A renal fibrosis animal model was established. SD rats were anesthetized with 4% chloral hydrate, injected with 1 mL/100 g intraperitoneally, fixed to an operation board, and sterilized in an operation area for later use. […] Muscular layers and abdominal walls were sewed layer by layer, the suture was disinfected with alcohol. After SD rats woke up, the rats were put into a cage for feeding. In the blank group, ureter was not ligated, and other steps were the same.
Then, the animals fell into a blank group, a model group, and polypeptide administration groups, with 10 animals in each group, and the administration was started on the second day after the operation, twice a day for 14 days. After administration for 14 days, blood was taken and supernatant was taken to detect the content of TGF-β1 in serum.

[2] = tested on: cardiac fibroblasts of rats; assay: Myocardial fibrosis model, MTT assay; type: cell-based; details: 1 μmol/L; for Inhibition of proliferation of cardiac fibroblasts of rats (in words): 24 hours and 48 hours; for Optical density value, 12 h / Optical density value, 24 h / Optical density value, 48 h: cardiac fibroblasts of rats, MTT, OD at 570 nm; for Optical density value, 12 h: blank group 0.353 ± 0.001; for Optical density value, 24 h: blank group 0.464 ± 0.018; for Optical density value, 48 h: blank group 0.896 ± 0.001
Experimental: (§1) The inhibitory effect of a polypeptide on cardiac fibroblasts of rats was detected by MTT assay. Cells were cultured in a DMEM medium containing 10% of FBS, the cytoplasm was made into 1×10^5/mL cell suspension, and 100 μL per well was inoculated into a 96-well plate. After the cells adhered to the wall, the medium was replaced with a serum-free DMEM medium, and the serum-free medium was discarded after 24 hours. The cells were cultured with different polypeptides of 1 μmol/L, and 5 multiple wells were set for each concentration. After 12, 24 and 48 hours separately, 10 μL of MTT was added to each well. After 4 hours, MTT was sucked out, and 150 μL of DMSO was added to each well. After reaction for 5 min, an OD value was measured at 570 nm by a microplate reader.

[3] = tested on: LX-2 hepatic stellate cells; assay: In vitro hepatic fibrosis model, MTT assay; type: cell-based; details: 1 μmol/L; for Inhibition of proliferation (in words): 24 hours and 48 hours, Example 2; for Optical density value, 12 h / Optical density value, 24 h / Optical density value, 48 h: LX-2 cells, MTT, OD at 570 nm; for Optical density value, 12 h: blank group 0.456 ± 0.012; for Optical density value, 24 h: blank group 0.548 ± 0.01; for Optical density value, 48 h: blank group 0.812 ± 0.016
Experimental: as §1, with “LX-2 hepatic stellate cells” for “cardiac fibroblasts of rats”, “1640” for “DMEM”, “4×10^5/mL” for “1×10^5/mL”

HYP = assay: Bleomycin skin fibrosis model, HYP content in skin tissue; type: in vivo, C57/BL black mice; details: bleomycin skin fibrosis mice; 10 mg/kg subcutaneous twice a day, 28 days; FIG. 4
Experimental: Bleomycin (10 μg/mL) was injected subcutaneously every day for 28 days to form skin fibrosis. During the modeling period, the administration groups were given polypeptide drugs twice a day for treatment. After modeling, the mice were killed on the next day, and the skin tissue of the mouse back was taken to detect the content of HYP in the skin tissue.

Compound: COC(=O)c1ccc2c(c1)NC(=O)/C2=C(\Nc1ccc(N(C)C(=O)CN2CCN(C)CC2)cc1)c1ccccc1 [Positive drug group, Nintedanib, reference compound]
- Survival rate (%) [1]: 90%

Compound: Ac-SDKPGGGGLSKLGGGGTSLDASIIWAMMQN (N-terminus assumed) [Polypeptide I, Ser-Asp-Lys-Pro-linker-Leu-Ser-Lys-Leu-linker-Thr-Ser-Leu-Asp-Ala-Ser-Ile-Ile-Trp-Ala-Met-Met-Gln-Asn]
- Content of TGF-β1 in serum versus model group (TGF-β1): highly significantly different from the model group (***P<0.001)
- Inhibition of proliferation of cardiac fibroblasts of rats (in words) [2]: could inhibit the proliferation
- Optical density value, 12 h [2]: 0.362 ± 0.006
- Optical density value, 24 h [2]: 0.402 ± 0.002
- Optical density value, 48 h [2]: 0.678 ± 0.002
- Inhibition of proliferation (in words) [3]: could inhibit the proliferation
- Optical density value, 12 h [3]: 0.452 ± 0.008
- Optical density value, 24 h [3]: 0.542 ± 0.03
- Optical density value, 48 h [3]: 0.680 ± 0.014
- Survival rate (%) [1]: 90%
- Survival rate compared with model group / positive drug group ([1]; in words): equivalent to that of the positive drug group
- Expression of HYP content in tissue versus model group (HYP): highly significantly different from the model group (*P<0.05)

Compound: Ac-SDKPGGGGTSLDASIIWAMMQNGGGGLSKL (N-terminus assumed) [Polypeptide II, Ser-Asp-Lys-Pro-linker-Thr-Ser-Leu-Asp-Ala-Ser-Ile-Ile-Trp-Ala-Met-Met-Gln-Asn-linker-Leu-Ser-Lys-Leu]
- Content of TGF-β1 in serum versus model group (TGF-β1): highly significantly different from the model group (***P<0.001)
- Inhibition of proliferation of cardiac fibroblasts of rats (in words) [2]: could inhibit the proliferation
- Optical density value, 12 h [2]: 0.352 ± 0.004
- Optical density value, 24 h [2]: 0.367 ± 0.016
- Optical density value, 48 h [2]: 0.568 ± 0.013
- Inhibition of proliferation (in words) [3]: could inhibit the proliferation
- Optical density value, 12 h [3]: 0.463 ± 0.012
- Optical density value, 24 h [3]: 0.394 ± 0.005
- Optical density value, 48 h [3]: 0.578 ± 0.005
- Survival rate (%) [1]: 80%
- Expression of HYP content in tissue versus model group (HYP): highly significantly different from the model group (***P<0.001)

Compound: LSKLGGGGSDKPGGGGTSLDASIIWAMMQN [Polypeptide V, Leu-Ser-Lys-Leu-linker-Ser-Asp-Lys-Pro-linker-Thr-Ser-Leu-Asp-Ala-Ser-Ile-Ile-Trp-Ala-Met-Met-Gln-Asn]
- Content of TGF-β1 in serum versus model group (TGF-β1): highly significantly different from the model group (**P<0.01)
- Inhibition of proliferation of cardiac fibroblasts of rats (in words) [2]: could inhibit the proliferation
- Optical density value, 12 h [2]: 0.357 ± 0.024
- Optical density value, 24 h [2]: 0.397 ± 0.015
- Optical density value, 48 h [2]: 0.588 ± 0.019
- Inhibition of proliferation (in words) [3]: could inhibit the proliferation
- Optical density value, 12 h [3]: 0.462 ± 0.004
- Optical density value, 24 h [3]: 0.477 ± 0.015
- Optical density value, 48 h [3]: 0.618 ± 0.015
- Survival rate (%) [1]: 70%
- Expression of HYP content in tissue versus model group (HYP): highly significantly different from the model group (*P<0.05)

Compound: LSKLGGGGTSLDASIIWAMMQNGGGGSDKP [Polypeptide VI, Leu-Ser-Lys-Leu-linker-Thr-Ser-Leu-Asp-Ala-Ser-Ile-Ile-Trp-Ala-Met-Met-Gln-Asn-linker-Ser-Asp-Lys-Pro]
- Content of TGF-β1 in serum versus model group (TGF-β1): highly significantly different from the model group (**P<0.01)
- Inhibition of proliferation of cardiac fibroblasts of rats (in words) [2]: could inhibit the proliferation
- Optical density value, 12 h [2]: 0.340 ± 0.012
- Optical density value, 24 h [2]: 0.412 ± 0.005
- Optical density value, 48 h [2]: 0.622 ± 0.007
- Inhibition of proliferation (in words) [3]: could inhibit the proliferation
- Optical density value, 12 h [3]: 0.453 ± 0.021
- Optical density value, 24 h [3]: 0.502 ± 0.013
- Optical density value, 48 h [3]: 0.652 ± 0.018
- Survival rate (%) [1]: 70%
- Expression of HYP content in tissue versus model group (HYP): highly significantly different from the model group (***P<0.001)

Compound: TSLDASIIWAMMQNGGGGLSKLGGGGSDKP [Polypeptide IV, Thr-Ser-Leu-Asp-Ala-Ser-Ile-Ile-Trp-Ala-Met-Met-Gln-Asn-linker-Leu-Ser-Lys-Leu-linker-Ser-Asp-Lys-Pro]
- Content of TGF-β1 in serum versus model group (TGF-β1): highly significantly different from the model group (***P<0.001)
- Inhibition of proliferation of cardiac fibroblasts of rats (in words) [2]: could inhibit the proliferation
- Optical density value, 12 h [2]: 0.362 ± 0.015
- Optical density value, 24 h [2]: 0.392 ± 0.008
- Optical density value, 48 h [2]: 0.583 ± 0.012
- Inhibition of proliferation (in words) [3]: could inhibit the proliferation
- Optical density value, 12 h [3]: 0.478 ± 0.018
- Optical density value, 24 h [3]: 0.472 ± 0.03
- Optical density value, 48 h [3]: 0.580 ± 0.012
- Survival rate (%) [1]: 80%
- Expression of HYP content in tissue versus model group (HYP): highly significantly different from the model group (***P<0.001)

Compound: TSLDASIIWAMMQNGGGGSDKPGGGGLSKL [Polypeptide III, Thr-Ser-Leu-Asp-Ala-Ser-Ile-Ile-Trp-Ala-Met-Met-Gln-Asn-linker-Ser-Asp-Lys-Pro-linker-Leu-Ser-Lys-Leu]
- Content of TGF-β1 in serum versus model group (TGF-β1): highly significantly different from the model group (**P<0.01)
- Inhibition of proliferation of cardiac fibroblasts of rats (in words) [2]: could inhibit the proliferation
- Optical density value, 12 h [2]: 0.349 ± 0.012
- Optical density value, 24 h [2]: 0.413 ± 0.003
- Optical density value, 48 h [2]: 0.612 ± 0.018
- Inhibition of proliferation (in words) [3]: could inhibit the proliferation
- Optical density value, 12 h [3]: 0.455 ± 0.002
- Optical density value, 24 h [3]: 0.435 ± 0.013
- Optical density value, 48 h [3]: 0.642 ± 0.018
- Survival rate (%) [1]: 80%
- Expression of HYP content in tissue versus model group (HYP): highly significantly different from the model group (*P<0.05)
